Values of other authors in patent US9402907B2, “Pharmaceutical composition containing diamine derivative” (DAIICHI SANKYO COMPANY, LIMITED, priority 2011, dated 2016).
Read-outs that look alike come from different tables or passages of the source.

solubility (aqueous solution having a pH in the neutral region (e.g., a neutral buffer)): reduced solubility
solubility (strongly acidic aqueous solution): favorable solubility
Compound: CN1CCc2nc(C(=O)N[C@@H]3C[C@@H](C(=O)N(C)C)CC[C@@H]3NC(=O)C(=O)Nc3ccc(Cl)cn3)sc2C1 [Compound I, N^1-(5-chloropyridin-2-yl)-N^2-((1S,2R,4S)-4-[(dimethylamino)carbonyl]-2-{[(5-methyl-4,5,6,7-tetrahydrothiazolo[5,4-c]pyridin-2-yl)carbonyl]amino}cyclohexyl)ethanediamide]
